Measurements taken from PubChem BioAssay (NCI).
Several values for one entry are separate records, joined by “and”; a condition that tells them apart may be missing. Identical values can stand only once.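 48-hour exposure; five concentrations; linearly interpolated endpoints. Here, GI50 denotes the concentration required for 50% inhibition of growth. Definition used: TGI = concentration required for complete inhibition of growth.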

Columns and labels:
Assay in all cases: inhibition of tumour cell growth, NCI panel, 48 h
NCI-H460 lung = test system: NCI-H460 lung
HL-60(TB) leukemia = test system: HL-60(TB) leukemia
EKVX NSCLC = test system: EKVX NSCLC
CCRF-CEM leukemia = test system: CCRF-CEM leukemia
U251 CNS = test system: U251 CNS
HCC-2998 colon = test system: HCC-2998 colon
SF-539 CNS = test system: SF-539 CNS
NCI-H226 lung = test system: NCI-H226 lung
OVCAR-3 ovarian = test system: OVCAR-3 ovarian
NCI-H23 lung = test system: NCI-H23 lung

Row | SMILES | GI50 (NCI-H460 lung) | TGI (NCI-H460 lung) [µM] | GI50 (HL-60(TB) leukemia) | TGI (HL-60(TB) leukemia) | GI50 (EKVX NSCLC) | TGI (EKVX NSCLC) [µM] | GI50 (CCRF-CEM leukemia) | TGI (CCRF-CEM leukemia) | GI50 (U251 CNS) | TGI (U251 CNS) [µM] | GI50 (HCC-2998 colon) | TGI (HCC-2998 colon) [µM] | GI50 (SF-539 CNS) | TGI (SF-539 CNS) | GI50 (NCI-H226 lung) | TGI (NCI-H226 lung) [µM] | GI50 (OVCAR-3 ovarian) | TGI (OVCAR-3 ovarian) [µM] | GI50 (NCI-H23 lung) | TGI (NCI-H23 lung) [µM]
1 | Cn1c2ccc(Br)cc2c2c3c(c4c5ccccc5[nH]c4c21)C(=O)N(O)C3=O | 0.04 µM | 0.182 | 0.301 µM | 1.85 µM | 0.232 µM | 0.896 | 0.0412 µM | 0.956 µM | 0.0865 µM | 0.266 | 0.473 µM | 1.57 | 0.073 µM | 0.217 µM | 1.06 µM | 2.92 | 0.191 µM | 0.452 | 0.0872 µM | 0.398
2 | COc1ccc(OC)c2c1[nH]c(=O)c1c3ncccc3cn21 | 1.61 µM | 3.39 | 3.13 µM | > 100 µM | 4.91 µM | > 100 | 3.32 µM | > 100 µM | 3.63 µM | 27.8 | 4.44 µM | > 100 | 3.96 µM | > 100 µM | 2.41 µM | > 100 | 4.54 µM | 18.4 | 3.58 µM | > 100
3 | Cc1nc(N2CCC3(CC2)CO[C@@H](C)[C@H]3N)c(CO)nc1Sc1ccnc(N)c1Cl | > 100 µM | > 100 | > 100 µM | > 100 µM | 0.449 µM | > 100 | > 91.3 µM | > 100 µM | 3.92 µM | > 100 | > 100 µM | > 100 | 7.43 µM | > 100 µM | 2.14 µM | > 100 | > 85.3 µM | > 100 | 0.329 µM | > 100
4 | CC(C)(C)CC(C)(C)NCc1cc(C(C)(C)C)cc(CNC(C)(C)CC(C)(C)C)c1O | 3.49 µM | 12.9 | 2.51 µM | 8.04 µM | 2.78 µM | 14.1 | 4.18 µM | 34.9 µM | 2.86 µM | 12.2 | 2.58 µM | 8.07 | 5.16 µM | 17.8 µM | 2.25 µM | 8.89 | 2.59 µM | 7 | 2.42 µM | 7.8
5 | CO[C@H](C(=O)[C@@H](O)[C@@H](C)O)[C@@H]1Cc2cc3cc(OC4CC(OC5CC(O)C(O)C(C)O5)C(O)C(C)O4)c(C)c(O)c3c(O)c2C(=O)[C@H]1OC1CC(OC2CC(OC3CC(C)(O)C(O)C(C)O3)C(O)C(C)O2)C(O)C(C)O1 (stereo not given in full) | 0.0183 µg/mL and 0.015 µg/mL |  | 0.05 µg/mL and 0.0761 µg/mL |  | 0.042 µg/mL and 0.0335 µg/mL |  | 0.0386 µg/mL and 0.0314 µg/mL |  | 0.016 µg/mL and 0.0132 µg/mL |  | 0.0395 µg/mL and 0.0243 µg/mL |  | 0.0233 µg/mL and 0.0157 µg/mL |  | 0.0179 µg/mL and 0.0115 µg/mL |  | 0.0235 µg/mL and 0.0222 µg/mL |  | 0.0235 µg/mL and 0.0192 µg/mL | 
6 | COc1cc(Nc2nc3ccccc3cc2C(=O)Nc2ccc(F)c(F)c2)cc(OC)c1OC | 3.11 µM | > 100 | 2.43 µM | 7.14 µM | 2.87 µM | > 100 | 3.12 µM | > 100 µM | 3.36 µM | > 100 | 4.19 µM | > 100 | 3.65 µM | > 100 µM | 2.55 µM | 7.93 | 2.56 µM | 6.96 | 2.84 µM | 8.51
7 | CCc1cccc(CC)c1NC(=O)C1=C(C)NC(C)=C(C(=O)Nc2c(CC)cccc2CC)C1c1ccc([N+](=O)[O-])cc1 |  | 45 |  | 48.7 µM |  | 78.3 |  | 45.8 µM |  | > 100 |  | > 100 |  | 39.8 µM |  | > 100 |  | 96 |  | > 100
8 | CNC(=O)Cc1nc(-c2cccc(NS(=O)(=O)c3c(F)cccc3F)c2F)c(-c2ccnc(Nc3ccccc3)n2)s1 | 14.8 µM | > 50 | 3.96 µM | > 50 µM | 22.4 µM | > 50 | 11.3 µM | > 50 µM | 22.7 µM | > 50 | 7.94 µM | 28.1 | 10.9 µM | > 50 µM | 8.73 µM | > 50 | 12.9 µM | > 50 | 4.42 µM | > 50
9 | FC(F)(F)C1(Br)C(c2ccccc2)=C1c1ccccc1 |  | 80.1 |  | > 100 µM |  | > 100 |  | 30.2 µM |  | 30.2 |  | 38.4 |  | 37 µM |  | 46.3 |  | 29.6 |  | 32.7
10 | CC1=NN(C(=O)c2ccc([N+](=O)[O-])cc2)C(=O)C1N=Nc1ccccc1C(=O)O (stereo not given) |  | > 100 |  | > 100 µM |  | > 100 |  | > 100 µM |  | > 100 |  | > 100 |  | > 100 µM |  | > 100 |  | > 100 |  | > 100
11 | Cc1cccc(C)c1NC(=O)Nc1ccc(S(N)(=O)=O)cc1 |  | > 100 |  | > 100 µM |  | > 100 |  | > 100 µM |  | > 100 |  | > 100 |  | > 100 µM |  | > 100 |  | > 100 |  | > 100
12 | Cc1cc(N(CCC#N)S(C)(=O)=O)ccc1C=Nc1ccc(C(=O)NN2C(=O)/C(=C/c3ccc(N(CCC#N)CCC#N)cc3C)N=C2c2cc([N+](=O)[O-])ccc2Cl)cc1 |  | > 100 |  | > 100 µM |  | > 100 |  | > 100 µM |  | > 100 |  | > 100 |  | > 100 µM |  | > 100 |  | > 100 |  | > 100
13 | CN1C(=O)C(=O)c2cc3c(c4c2c1cc1ccccc14)OCO3 |  | > 100 |  | > 100 µM |  | > 100 |  | > 100 µM |  | > 100 |  | > 100 |  | > 100 µM |  | 73.3 |  | > 100 |  | > 100
14 | COc1ccc(-c2c3c(n(C4OC(COC(C)=O)C(OC(C)=O)C(OC(C)=O)C4OC(C)=O)c(=S)c2C#N)CC(C)(C)CC3=O)cc1 (stereo not given) |  | > 100 | 18.4 µM and 47.6 µM | 42.5 µM and > 100 µM |  | 97.5 | 21.5 µM and 71.7 µM | 57.2 µM and > 100 µM | 34.9 µM and > 100 µM | > 100 |  | > 100 |  | 58.6 µM and > 100 µM |  | > 100 | 40.5 µM and 88.7 µM | > 100 | 39.9 µM and > 100 µM | > 100
15 | CC/C(CC(=O)CCC(=O)Nc1ccccc1[N+](=O)[O-])=N/NC(=O)C[n+]1ccccc1 |  | > 100 |  | > 100 µM |  | > 100 |  | > 100 µM |  | > 100 |  | > 100 |  | > 100 µM |  | > 100 |  | > 100 |  | > 100
16 | C=C[C@@]1(O)CCCC2=C(C(=O)OCC)CC[C@]21C |  | > 100 |  | > 100 µM |  | > 100 |  | > 100 µM |  | > 100 |  | > 100 |  | > 100 µM |  | > 100 |  | > 100 |  | > 100
17 | Cc1ccc(S(=O)(=O)NNC(=O)c2cc(C)c(C)cc2N)cc1 |  | > 100 |  | > 100 µM |  | > 100 |  | > 100 µM |  | > 100 |  | > 100 |  | > 100 µM |  | > 100 |  | > 100 |  | > 100
18 | CCc1cc(CCC(=O)Nc2c(C)cccc2C)[nH]n1 |  | > 100 |  | > 100 µM |  | > 100 |  | > 100 µM |  | > 100 |  | > 100 |  | > 100 µM |  | > 100 |  | > 100 |  | > 100
19 | COc1cccc(C2c3cc4c(cc3OC(N3CCCC3)C2C)OCO4)c1O (stereo not given) |  | 32.4 |  | 31.5 µM |  | > 84.9 |  | > 100 µM |  | 25.8 |  | 46.9 |  | 10.6 µM |  | 35.6 |  | 8.02 |  | 34.9
20 | C=C(Nc1ccc([N+](=O)[O-])cc1[N+](=O)[O-])c1c/c(=N\NC(N)=S)c2ccccc2o1 |  | > 100 |  | > 100 µM |  | > 100 |  | > 100 µM |  | > 100 |  | > 100 |  | 55.7 µM |  | > 100 |  | 86.1 |  | > 100
21 | C=C1CCC2C(C)(COC(=O)CC)C(OC(=O)CC)CCC2(C)C1C/C=C1/C(=O)OCC1OC(=O)CC (stereo not given) | 1.98 µM | 3.59 | 1.82 µM | 5.85 µM | 7.96 µM | 22.1 | 0.558 µM | > 100 µM | 1.3 µM | 2.59 | 4.25 µM | 13.9 | 1.84 µM | 4.17 µM | 2.13 µM | 4.1 | 1.77 µM | 3.15 | 3.39 µM | 13.2
22 | COc1ccccc1CNCCCN1C(=O)c2ccc3c4c(ccc(c24)C1=O)C(=O)N(CCCCNCCCN)C3=O | 0.825 µM | 2.82 | 0.867 µM | 2.7 µM | 2 µM | 5.75 | 0.752 µM | 5.17 µM | 0.831 µM | 2.28 | 1.12 µM | 3.03 | 1.68 µM | 3.19 µM | 2.26 µM | 9.24 | 0.334 µM | 1.14 | 0.594 µM | 1.63
